Source: article PMC5547389, “Structure-activity relationships and molecular docking studies of chromene and chromene based azo chromophores: A novel series of potent antimicrobial and anticancer agents” (EXCLI Journal, 2017)
Converted amounts (≈) assume the structure as drawn.

What was measured:
[1] = test system: Aspergillus fumigatus (RCMB 02568); assay: Well diffusion assay (inhibition zone); type: cell-based; details: RCMB02568, 5 mg/mL in DMSO, fungi, read-out: Inhibition Zone (IZ) diameter, A.F
Description: (§1) The microorganism inoculums were uniformly spread using sterile cotton swabs on a sterile Petri dish malt extract agar (for fungi) and nutrient agar (for bacteria). One hundred cubic millimeters of each sample was added to each well (10 mm-diameter holes were cut in the agar gel, 20 mm apart from one another). The systems were incubated for 24-48 h at 37 °C (for bacteria) and at 28 °C (for fungi). After incubation, the microorganism growth was observed. Inhibition zones of the bacterial and fungal growth were measured in millimeters. Tests were performed in triplicate (Cappuccino and Sherman, 1999[12]; Vanden Berghe and Vlientinck, 1991[62]).
(§2) All the newly synthesized compounds described in this report were screened for both antibacterial and antifungal activity via the reported agar diffusion well method (Vanden Berghe and Vlietinck, 1991[62]). The inhibition zones and minimum inhibitory concentrations (MIC) were determined by the serial dilution method (Cappuccino and Sherman, 1999[12]). The antimicrobial activity of the synthesized compounds was tested against a broad panel of microorganisms including two Gram-positive bacteria: Streptococcus pneumoniae (RCMB 010010) and Bacillus subtilis (RCMB 010067), two Gram-negative bacteria: Pseudomonas aeruginosa (RCMB 010043) and Escherichia coli (RCMB 010052), and four fungi: Aspergillus fumigatus (RCMB 02568), Syncephalastrum racemosum (RCMB 05922), Geotricum candidum (RCMB 05097), and Candida albicans (RCMB 05036). Ampicillin, ciprofloxacin, gentamicin and amphotericin B were used as positive control drugs (Atta-ur-Rahman and Thomsen, 2001[7]; Smania et al., 1999[57]). […] While in the case of Gm-ve bacteria, they had weak activity. In addition, certain strains of fungi were sensitive to tested compounds with an IZ range from 12-25 except Candida albicans.

[2] = test system: Bacillus subtilis (RCMB 010067); assay: Well diffusion assay (inhibition zone); type: cell-based; details: RCMB010067, 5 mg/mL in DMSO, Gm+ve, read-out: Inhibition Zone (IZ) diameter, B.S
Description: as §1, §2

[3] = test system: Escherichia coli (RCMB 010052); assay: Well diffusion assay (inhibition zone); type: cell-based; details: RCMB010052, 5 mg/mL in DMSO, Gm-ve, read-out: Inhibition Zone (IZ) diameter, E.C
Description: as §1, §2

[4] = test system: Geotricum candidum (RCMB 05097); assay: Well diffusion assay (inhibition zone); type: cell-based; details: 5 mg/mL in DMSO; fungi; read-out: Inhibition Zone (IZ) diameter, G.C
Description: as §1, §2

[5] = test system: Pseudomonas aeruginosa (RCMB 010043); assay: Well diffusion assay (inhibition zone); type: cell-based; details: RCMB010043, 5 mg/mL in DMSO, Gm-ve, read-out: Inhibition Zone (IZ) diameter, P.A
Description: as §1, §2

[6] = test system: Streptococcus pneumoniae (RCMB 010010); assay: Well diffusion assay (inhibition zone); type: cell-based; details: RCMB010010, 5 mg/mL in DMSO, Gm+ve, read-out: Inhibition Zone (IZ) diameter, S.P
Description: as §1, §2

[7] = test system: Syncephalastrum racemosum (RCMB 05922); assay: Well diffusion assay (inhibition zone); type: cell-based; details: RCMB05922, 5 mg/mL in DMSO, fungi, read-out: Inhibition Zone (IZ) diameter, S.R
Description: as §1, §2

[8] = test system: Aspergillus fumigatus (RCMB 02568); assay: MIC by serial dilution method; type: cell-based; details: RCMB02568, fungi, read-out: Minimum inhibitory concentration, MIC, A.F
Description: as §2

[9] = test system: Bacillus subtilis (RCMB 010067); assay: MIC by serial dilution method; type: cell-based; details: RCMB010067, Gm+ve, read-out: Minimum inhibitory concentration, MIC, B.S
Description: as §2

[10] = test system: Escherichia coli (RCMB 010052); assay: MIC by serial dilution method; type: cell-based; details: RCMB010052, Gm-ve, read-out: Minimum inhibitory concentration, MIC, E.C
Description: as §2

[11] = test system: Geotricum candidum (RCMB 05097); assay: MIC by serial dilution method; type: cell-based; details: fungi; read-out: Minimum inhibitory concentration, MIC, G.C
Description: as §2

[12] = test system: Pseudomonas aeruginosa (RCMB 010043); assay: MIC by serial dilution method; type: cell-based; details: RCMB010043, Gm-ve, read-out: Minimum inhibitory concentration, MIC, P.A
Description: as §2

[13] = test system: Streptococcus pneumoniae (RCMB 010010); assay: MIC by serial dilution method; type: cell-based; details: RCMB010010, Gm+ve, read-out: Minimum inhibitory concentration, MIC, S.P
Description: as §2

[14] = test system: Syncephalastrum racemosum (RCMB 05922); assay: MIC by serial dilution method; type: cell-based; details: RCMB05922, fungi, read-out: Minimum inhibitory concentration, MIC, S.R
Description: as §2

[15] = test system: Human colon carcinoma (HCT-116); assay: Cytotoxic screening; type: cell-based; details: Homo sapiens, HCT-116; read-out: IC50 HCT-116
Description: (§3) Human colon carcinoma (HCT-116), human hepatocellular carcinoma (HEPG-2), adenocarcinomic human alveolar basal epithelial cell (A-549), and human breast adenocarcinoma (MCF-7) cell lines were obtained from the American Type Culture Collection (ATCC, Rockville, MD). The cells were grown on RPMI-1640 medium supplemented with 10 % inactivated fetal calf serum and 50 µg/ml gentamycin. The cells were maintained at 37 °C in a humidified atmosphere with 5 % CO2 and were subcultured two to three times a week. Potential cytotoxicity of the compounds was evaluated on tumor cells using the method of Gangadevi and Muthumary (2007[21]) (Klancnik et al., 2010[36]). The cells were grown as monolayers in growth RPMI-1640. The monolayers of 104 cells adhered at the bottom of the wells in a 96-well microtiter plate incubated for 24 h at 37 °C in a humidified incubator with 5 % CO2. The monolayers were then washed with sterile phosphate buffered saline (0.01 M pH 7.2) and simultaneously the cells were treated with 100 µL from different dilutions of tested sample in fresh maintenance medium and incubated at 37 °C. A control of untreated cells was made in the absence of tested sample. Positive controls containing doxorubicin were also tested as a reference drug for comparison. Six wells were used for each concentration of the test sample. Every 24 hours an observation under the inverted microscope was made. The number of the surviving cells was determined by staining the cells with crystal violet (Mosmann, 1983[42]; Gangadevi and Muthumary, 2007[21]) followed by cell lysing using 33 % glacial acetic acid and reading the absorbance at 590 nm using microplate reader (SunRise, TECAN, Inc, USA) after well mixing. The absorbance values from untreated cells were considered as 100 % proliferation. The number of viable cells was determined using microplate reader as previously mentioned before and the percentage of […] was calculated as [1-(ODt/ODc)] x 100 % where ODt is the mean optical density of wells treated with the tested sample and ODc is the mean optical density of untreated cells. The relation between surviving cells and drug concentration was plotted to get the survival curve of each tumor cell line after treatment with the specified compound. The 50 % inhibitory concentration (IC50), the concentration required to cause toxic effects in 50 % of intact cells, was estimated from graphic plots.
(§4) The in vitro cytotoxic activity was performed by MTT assay (Mosmann, 1983[42]; Alley et al., 1988[6]) against three human carcinoma cell lines: Human colon carcinoma (HCT-116), human breast adenocarcinoma (MCF-7), and human hepatocellular carcinoma (HEPG-2).

[16] = test system: human breast adenocarcinoma (MCF-7); assay: Cytotoxic screening; type: cell-based; details: Homo sapiens, MCF7; read-out: IC50 MCF-7
Description: as §3, §4

[17] = test system: human hepatocellular carcinoma (HEPG-2); assay: Cytotoxic screening; type: cell-based; details: HepG2, read-out: IC50 HepG-2
Description: as §3, §4

Structure (SMILES) | zone of inhibition at 5000 µg/mL [1] [mm] | zone of inhibition at 5000 µg/mL [2] [mm] | zone of inhibition at 5000 µg/mL [3] [mm] | zone of inhibition at 5000 µg/mL [4] [mm] | zone of inhibition at 5000 µg/mL [5] [mm] | zone of inhibition at 5000 µg/mL [6] [mm] | zone of inhibition at 5000 µg/mL [7] [mm] | MIC [8] [µg/mL] | MIC [9] [µg/mL] | MIC [10] [µg/mL] | MIC [11] [µg/mL] | MIC [12] [µg/mL] | MIC [13] [µg/mL] | MIC [14] [µg/mL] | IC50 [15] [µg/mL] | IC50 [16] [µg/mL] | IC50 [17] [µg/mL] | melting point [°C]
COc1ccc(C2C(C#N)=C(N)Oc3c(N)cc4ccccc4c32)cc1 (centres unmarked) [4d, 3,5-diamino-1-(4-methoxy-phenyl)-1H-benzo[f]chromene-2-carbonitrile] | 22.3 | 29.8 | 17.6 | 25.8 | 12.3 | 19.5 | 16.5 | 0.98 (≈ 2.85 µM) | 0.007 (≈ 0.0204 µM) | 15.6 (≈ 45.5 µM) | 0.06 (≈ 0.175 µM) | 125 (≈ 364 µM) | 7.81 (≈ 22.7 µM) | 62.5 (≈ 182 µM) | 4.79 (≈ 13.9 µM) | 4.68 (≈ 13.6 µM) | 2.64 (≈ 7.69 µM) | 183
O=[N+]([O-])c1ccc(N=Nc2ccc(O)cc2O)cc1 [12c, 4-(4-Nitro-phenylazo)-benzene-1,3-diol] | 16.4 | 18.6 | 13.5 | 17.9 |  | 17.2 | 14.2 | 62.5 (≈ 241 µM) | 7.81 (≈ 30.1 µM) | 125 (≈ 482 µM) | 15.6 (≈ 60.3 µM) |  | 31.2 (≈ 121 µM) | 125 (≈ 482 µM) | 30.2 (≈ 117 µM) | 24 (≈ 92.6 µM) | 21.2 (≈ 81.8 µM) | 
N#CC1=C(N)Oc2cc(O)c(N=Nc3ccc(C(=O)O)cc3)cc2C1c1ccccc1F (centres unmarked) [13e, 4-[2-Amino-3-cyano-4-(2-fluoro-phenyl)-7-hydroxy-4H-chromen-6-ylazo]-benzoic acid] | 21.3 | 25.2 | 19.3 | 21.8 | 19.3 | 23.6 | 19.3 | 0.98 (≈ 2.28 µM) | 0.06 (≈ 0.139 µM) | 3.9 (≈ 9.06 µM) | 0.49 (≈ 1.14 µM) | 3.9 (≈ 9.06 µM) | 0.12 (≈ 0.279 µM) | 3.9 (≈ 9.06 µM) | 46.7 (≈ 109 µM) | 27.9 (≈ 64.8 µM) | 20.5 (≈ 47.6 µM) | 243
CC(C)(C)c1ccc(C2C(C#N)=C(N)Oc3cc(O)c(N=Nc4ccc(S(=O)(=O)O)cc4)cc32)cc1 (centres unmarked) [13g, 4-[2-Amino-4-(4-tert-butyl-phenyl)-3-cyano-7-hydroxy-4H-chromen-6-ylazo]-benzenesulfonic acid] | 14.3 | 16.1 | 13.6 | 17.1 |  | 15.2 | 15.2 |  |  |  |  |  |  |  | 100 (≈ 198 µM) | 92.6 (≈ 184 µM) | 81.3 (≈ 161 µM) | 330
CCCCc1ccc(C2C(C#N)=C(N)Oc3cc(O)c(N=Nc4ccc(S(=O)(=O)O)cc4)cc32)cc1 (centres unmarked) [13h, 4-[2-Amino-4-(4-butyl-phenyl)-3-cyano-7-hydroxy-4H-chromen-6-ylazo]-benzenesulfonic acid] | 12.1 | 16.3 | 13.9 | 15.8 |  | 15.3 | 13.6 |  |  |  |  |  |  |  | 88.6 (≈ 176 µM) | 44.6 (≈ 88.4 µM) | 40.4 (≈ 80.1 µM) | 275
CC1(C)S[C@@H]2[C@H](NC(=O)[C@H](N)c3ccccc3)C(=O)N2[C@H]1C(=O)O [Ampicillin, reference compound] |  | 32.4 |  |  |  | 23.8 |  |  | 0.007 (≈ 0.02 µM) |  |  |  | 0.24 (≈ 0.687 µM) |  |  |  |  | 
O=C(O)c1cn(C2CC2)c2cc(N3CCNCC3)c(F)cc2c1=O [Ciprofloxacin, reference compound] |  |  | 25.3 |  | 22.3 |  |  |  |  | 0.49 (≈ 1.48 µM) |  | 0.99 (≈ 2.99 µM) |  |  |  |  |  | 
CNC(C)C1CCC(N)C(OC2C(N)CC(N)C(OC3OCC(C)(O)C(NC)C3O)C2O)O1 (centres unmarked) [Gentamicin, reference compound] |  |  | 19.9 |  | 17.3 |  |  |  |  | 3.9 (≈ 8.17 µM) |  | 31.2 (≈ 65.4 µM) |  |  |  |  |  | 
